Source: patent US8114393B2, “Methods and compositions for phosphate binding” (Wisconsin Alumni Research Foundation, priority 2005, dated 2012)

Experiments:
[1] = tested on: intestinal phosphorus absorption; test: Fecal phosphorus content, increasing dietary levels of DAB-8 hydroacetate for three weeks; format: in vivo, rats
Description: Materials and Methods. Young male Sprague-Dawley rats weighing approximately 90 g were fed a purified diet containing 0.47% calcium and 0.2% inorganic phosphorus, solidified with molten agar, for 5 days. After this acclimation period, the rats were divided into 5 groups by body weight. One group remained on the control diet while the other 4 groups were fed diets containing increasing levels of DAB-8 in the hydroacetate salt form (0.09 to 0.7%). After 1, 2 and 3 weeks on the diets, the rats were moved to metabolic caging and 24 to 48 hour fecal collections were obtained. The feces were dried then ashed in a muffle oven at 700° C. for 24 hours. The resulting ash was dissolved in 6N HCl and the phosphorus content was measured using an in-house colorimetric assay.
Data are expressed as means±SEM. Data were subjected to analysis of variance (ANOVA), and group means compared using Tukey, Scheffe and Fisher's LSD test.
Young rats were either control diet (“0”), or the same diet containing one of four levels of DAB-8 as the hydroacetate for three weeks. Feces were collected from the rats using metabolic housing for 24 to 48 hours at the end of the first (week 1), second (week 2) or third (week 3) weeks. Feces was dried, then ashed in a muffle oven. Resulting ash was dissolved in 6N HCl. Phosphorus content was determined using an in-house colorimetric assay. *Indicates significant difference from control diet with a p-value of […].

[2] = tested on: Intestinal Phosphate Absorption; test: Intestinal phosphate absorption: oral 33P dose after gavage of phosphate binder; format: in vivo, rats; settings: 14.4 mg Renagel or 10 mg DAB-8 as acetate or citrate; 10 mM KH2PO4; 60 min
Method: Animals. Male Sprague-Dawley rats (Harlan Sprague-Dawley, Madison, Wis.) weighing approximately 120 grams were used in all experiments.
In experiments to measure ^33P absorption, the rats were fed a laboratory chow diet (Lab Diet 5012, Richmond, Ind.) containing 1% calcium and 0.7% phosphorus ad libitum for less than one week prior to the experiment.
Intestinal Phosphate Absorption. Following an overnight fast, rats were administered 0.5 mL water or an oral phosphate binder dissolved in water via gastric gavage. A second dose of 0.5 mL containing 3 μCi ^33P (as H3PO4, specific activity 155.8 Ci/mg, New England Nuclear/Perkin Elmer, Boston, Mass.) in a 10, 50, or 100 mM KH2PO4 buffer at pH 7.4 was immediately administered via gastric gavage. Rats were killed by CO2 asphyxiation immediately or 60 minutes after the oral dose. The rats killed immediately (labeled “0 min control” in figures) were used to determine if the oral ^33P dose was properly administered and completely recovered.
Blood was collected via heart puncture and centrifuged at 1500×g for 15 minutes at 22° C. to yield serum. A suture was tied to the cranial end of the esophagus to contain liquid inside the stomach. The entire digestive tract was then removed and allowed to dissolve for several days in concentrated HNO3 (approximately 1 mL HNO3 per gram tissue). The exact volume of the dissolved digestive tract was determined by diluting the dissolved tissues to equal volumes with water.
The amount of radioactivity in total body serum and total volume of dissolved tissue was determined following liquid scintillation counting of 50 μL aliquots in triplicate (Tri-Carb Liquid Scintillation Analyzer, Perkin-Elmer/Packard, Boston, Mass.). Total body serum was estimated to be 40 mL serum/kg body weight. (Hawk T et al., 1999, Formulary for laboratory animals, Ames, Iowa: Iowa State University Press.)
Statistical analysis. Data are presented as means±standard error of the means (SEM). Treatment groups were compared by a fully factorial analysis of variance (ANOVA) and means were subjected to Tukey, Scheffe, and Fisher's Least-Significant-Difference (LSD) tests (Systat 5.2.1, Systat Software, Inc., Point Richmond, Calif.). Differences were considered significant if at least two of the tests detected significance with a p-value <0.05, unless specified otherwise.
Materials and Methods. The relevant materials and methods were the same as set forth above except that instead of using “0.5 mL of water or 39.5 mg calcium acetate, 14.4 mg RENAGEL, or up to 132.8 mg of test dendrimer,” the following was used “0.5 mL of water, 14.4 mg RENAGEL or 10 mg DAB-8 as the hydroacetate or hydrocitrate form dissolved in water.”

Substance: Polypropylenimine octaamine Dendrimer decahydroacetate [DAB-8 as acetate]
- fecal phosphorus content versus control diet, first 2 weeks on the diet ([1]; all four levels of the phosphate binder (0.09 to 0.7%)): significant increase
- fecal phosphorus output ([1]; daily consumption, 0.09 to 0.7% of diet): dose-dependent increase
- dietary phosphorus absorption in vivo ([1]; inferred from fecal phosphorus, 0.09 to 0.7% of diet): dose-dependent reduction
- fecal phosphorus content versus control diet, week 3 ([1]; only the highest dietary level): retains significance
- 33P in the serum compared with vehicle pretreatment (FIG. 26) [2]: significantly less
- 33P retained in the gut compared with vehicle pretreatment (FIG. 25) [2]: significantly more
